In publication PMC2873402, “Discovery of High-Affinity Protein Binding Ligands – Backwards” (PLoS ONE, 2010):
Bridge positions count the residues as written; N and C are the ends. Ends that are not written are not given here. I, II: the chains in the order shown. * marks the point of attachment. StBu = CC(C)(C)S*

Columns and labels:
AKT3 [1] = test: Protein array (ProtoArray), binding to AKT3; parameters: species or system human
Description: Synbodies were screened on an Invitrogen ProtoArray™ (Life Technologies, Carlsbad, CA, USA) detected with Alexa-555 labeled streptavidin (Life Technologies), and scanned using a Perkin Elmer ProScan Array HTP. The spots were analyzed using GenePix Pro (Molecular Devices, Sunnyvale, CA, USA) and data were processed using Genespring GX (Agilent Technologies, Santa Clara, CA, USA). Synbodies were labeled with biotin using either Maleimide-PEG2-Biotin (Thermo Pierce, Rockford, IL, USA) to label the C-terminal cysteine or biotin was incorporated during synbody synthesis by replacing the C-terminal cysteine with Lys-biotin (Novabiochem, San Diego, CA, USA). Synbodies were screened on the array using the recommended protocol with the following modifications: the arrays were blocked with 5 mL blocking buffer (50mM HEPES pH 7.5, 200 mM NaCl, 0.08% Triton X-100, 25% Glycerol, 20mM reduced Glutathione, 1.0mM DTT, 1% BSA) for 90 min. A 200 nM synbody solution was incubated in probing buffer (1× PBS, 1% BSA, 0.1% Tween) for 90 minutes. Slides were dried by centrifugation at 200g for 1 minute and scanned at 100% laser power and 70% photomultiplier voltage. The gal file was obtained for each array by submitting the barcode of the array to www.invitrogen.com/protoarray.
Heat maps were constructed using median-normalized data from each ProtoArray. […]

AKT2 = test: IP of AKT isoforms spiked into A549 lysate: AKT2; type: binding; settings: 250 ng of each isoform in 500 µg A549 lysate, Western Blot
Description: (§1) This apparent specificity was investigated further by performing an IP using 250 ng of each isoform of AKT spiked into 500 µg of A-549 cell lysate.
(§2) For all IP experiments, either a 1 µM or 250 nM solution of biotin-conjugated synbody was captured on 20 µL of streptavidin coated paramagnetic M-280 Dynabeads (Life Technologies) according to the manufacturers protocol. Synbody coated beads were washed five times with 1 mL of 100 mM phosphate buffered saline containing 0.05% Tween-20 (PBST) and incubated overnight at 4°C with shaking in the desired amount of target protein in A549 cell lysate. For Kd determination experiments, serial dilutions of AKT1 or ABL1 were prepared in binding buffer. After binding, beads were washed five times with 1 mL of PBST and heated at 70°C in 20 µL of 1× LDS loading buffer (Invitrogen) for 10 minutes. The samples were analyzed by SDS-PAGE gel with Western Blot detection using the appropriate antibody and imaged on a GE Healthcare Typhoon Trio.

AKT3 [2] = test: IP of AKT isoforms spiked into A549 lysate: AKT3; type: binding; settings: 250 ng of each isoform in 500 µg A549 lysate, Western Blot
Description: as §1, §2

AKT1 [3] = molecular target: T1, AKT1 (Homo sapiens, UniProt P31749); test: Protein array (ProtoArray), binding to AKT1; parameters: purchased Life Technologies; settings: 200 nM synbody, fluorescently labeled streptavidin
Excerpt: To test this approach, a candidate synbody was constructed using two peptides, […] and […], referred to as peptides 1 and 2, respectively. The sequences of the first 17 aa of these peptides were generated using a random number generator and three constant positions on the C-terminus that served as a spacer between the linker scaffold and the active portion of each peptide. A divergent synthetic method was used in which peptide 1 was synthesized from C to N terminus from the α-amine of lysine and peptide 2 was synthesized from the ε-amine of lysine (Figure 2A, Materials and Methods S1, Figure S1). The synbody was tagged on the C-terminus with biotin and screened against a Life Technologies ProtoArray™. ProtoArrays are nitrocellulose coated slides onto which 8,303 recombinant human proteins have been spotted. After a 2-hour incubation, the array was washed and bound synbody was detected using fluorescently labeled streptavidin. […]
Synbodies were screened on an Invitrogen ProtoArray™ (Life Technologies, Carlsbad, CA, USA) detected with Alexa-555 labeled streptavidin (Life Technologies), and scanned using a Perkin Elmer ProScan Array HTP. The spots were analyzed using GenePix Pro (Molecular Devices, Sunnyvale, CA, USA) and data were processed using Genespring GX (Agilent Technologies, Santa Clara, CA, USA). […]

AKT1 [4] = molecular target: T1, AKT1; test: IP of 35S-labeled AKT1, scintillation counting; type: binding; parameters: N-terminal vector leader of pEXP5-NT (6xHis + TEV site by own knowledge of the vector); made in house; host or cells: Expressway Mini Cell-Free Expression System (in vitro translation); settings: AKT1 approximately 3% of total protein
Description: In order to validate the Kd determined by SPR, an additional IP was performed using ^35S-labeled AKT1 produced by in vitro translation (IVT). The translation mixture contained 12 µg of AKT1 in the presence of 400 µg of total protein and a concentration series of ^35S-labeled AKT1 from 41.5 nM to 80 pM was prepared by dilution of the 35-S-labeled AKT1 IVT mixture. The synbody was then used to precipitate the ^35S-labeled AKT1 in the same manner as before. Bound AKT1 was quantified using liquid scintillation counting and plotted as a function of AKT1 concentration.
AKT1 DNA was assembled by ligation of 42-bp oligonucleotides by PCR according to a procedure developed internally (Borovkov, et al. submitted). The PCR product was cloned into pEXP5-NT topo expression vector (Life Technologies), purified using a Qaigen PCR purification kit, and quantified by Nanodrop spectrophotometer (Thermo Scientific). […]
For all IP experiments, either a 1 µM or 250 nM solution of biotin-conjugated synbody was captured on 20 µL of streptavidin coated paramagnetic M-280 Dynabeads (Life Technologies) according to the manufacturers protocol. […] The samples were analyzed by SDS-PAGE gel with Western Blot detection using the appropriate antibody and imaged on a GE Healthcare Typhoon Trio.

T1 sequence (P31749 whole entry): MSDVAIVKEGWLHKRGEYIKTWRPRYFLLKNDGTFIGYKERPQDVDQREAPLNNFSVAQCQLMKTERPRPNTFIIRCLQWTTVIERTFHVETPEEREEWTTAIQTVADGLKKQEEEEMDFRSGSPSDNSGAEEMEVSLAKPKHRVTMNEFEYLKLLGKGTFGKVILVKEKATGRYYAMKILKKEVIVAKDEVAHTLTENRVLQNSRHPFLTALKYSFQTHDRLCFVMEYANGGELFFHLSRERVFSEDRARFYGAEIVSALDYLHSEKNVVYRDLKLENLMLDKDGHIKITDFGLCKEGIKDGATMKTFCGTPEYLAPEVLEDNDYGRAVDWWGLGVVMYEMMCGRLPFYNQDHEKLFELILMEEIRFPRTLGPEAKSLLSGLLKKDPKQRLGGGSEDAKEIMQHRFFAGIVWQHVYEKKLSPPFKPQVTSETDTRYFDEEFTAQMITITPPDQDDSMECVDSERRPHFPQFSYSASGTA

In the case of “I: AHKVVPQRQIRHAYNRYGSGKC(StBu)-NH2 / II: FRGWAHIFFGPHVIYRGGSG (amide I:21-II:C) [synbody]”, the “binding to AKT3 on protein array” value (AKT3 [1]) is reported as “little binding”, the “IP of AKT2 (isoform selectivity)” value (AKT2) is reported as “relatively little” and the “IP of AKT3 (isoform selectivity)” value (AKT3 [2]) is reported as “relatively little”. For the same substance, the “binding to AKT1 on protein array (top 10 proteins)” value (AKT1 [3]) was “twice in the top 10 proteins bound by the synbody” and the “specificity for AKT1 in IVT lysate” value (AKT1 [4]) was “specifically binds AKT1 from a complex background”.
